We go through 15 compounds from ChEMBL document CHEMBL1909046, “DrugMatrix in vitro pharmacology data”.

One data set has as its target T1, Cytochrome P450 2A6 (Homo sapiens, UniProt P11509).
T1 sequence (P11509 whole entry): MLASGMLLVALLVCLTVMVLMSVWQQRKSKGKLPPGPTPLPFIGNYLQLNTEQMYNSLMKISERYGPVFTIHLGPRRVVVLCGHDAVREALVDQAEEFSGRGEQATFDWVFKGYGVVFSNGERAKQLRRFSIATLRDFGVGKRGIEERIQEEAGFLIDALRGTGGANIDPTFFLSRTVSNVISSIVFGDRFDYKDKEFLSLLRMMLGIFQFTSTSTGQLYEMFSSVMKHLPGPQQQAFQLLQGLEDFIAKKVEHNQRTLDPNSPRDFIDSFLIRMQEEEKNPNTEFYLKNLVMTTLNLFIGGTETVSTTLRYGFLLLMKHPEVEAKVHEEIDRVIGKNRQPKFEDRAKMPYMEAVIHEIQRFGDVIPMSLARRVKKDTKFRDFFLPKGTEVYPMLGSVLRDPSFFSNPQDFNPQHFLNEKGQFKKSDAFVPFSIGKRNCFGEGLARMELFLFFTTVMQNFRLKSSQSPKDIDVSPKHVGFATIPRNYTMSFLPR
Particulars: bti-tn-5b1-4.

The target in data set [1] is C-C chemokine receptor type 5 (Homo sapiens, UniProt P51681). It is filed as cell membranes, HEK293, Membrane. The settings on record: hek293. Also: in other assays of this panel Not Active means under 50% inhibition at 10 µM.
The nature of data set [2]: DRUGMATRIX: beta-Lactamase enzyme inhibition (substrate: Nitrocefin). Details: species or system Bacillus cereus. The settings on record: Not Active = under 50% inhibition at 10 µM.
Data set [3] concerns the target Matrix metalloproteinase-9 (Homo sapiens, UniProt P14780). It is filed as cell-based.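 Also: inhibition of isolated MMP-9 enzyme activity toward a synthetic peptide substrate, from the DrugMatrix protease screening panel; in other assays of this panel Not Active means under 50% inhibition at 10 µM.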
The target of data set [4] is Mitogen-activated protein kinase 1 (Homo sapiens, UniProt P28482). Nature of the data set: DRUGMATRIX: Protein Serine/Threonine Kinase, ERK2 enzyme inhibition (substrate: Myelin Basic Protein). On the set-up: species or system Escherichia coli. Particulars: Not Active = under 50% inhibition at 10 µM.
The next data set concerns the target T2, Caspase-1 (Homo sapiens, UniProt P29466).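 Also: Caspase-1 enzyme inhibition assay with a peptide substrate; in other assays of this panel Not Active means under 50% inhibition at 10 µM.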
T2 sequence (P29466 whole entry): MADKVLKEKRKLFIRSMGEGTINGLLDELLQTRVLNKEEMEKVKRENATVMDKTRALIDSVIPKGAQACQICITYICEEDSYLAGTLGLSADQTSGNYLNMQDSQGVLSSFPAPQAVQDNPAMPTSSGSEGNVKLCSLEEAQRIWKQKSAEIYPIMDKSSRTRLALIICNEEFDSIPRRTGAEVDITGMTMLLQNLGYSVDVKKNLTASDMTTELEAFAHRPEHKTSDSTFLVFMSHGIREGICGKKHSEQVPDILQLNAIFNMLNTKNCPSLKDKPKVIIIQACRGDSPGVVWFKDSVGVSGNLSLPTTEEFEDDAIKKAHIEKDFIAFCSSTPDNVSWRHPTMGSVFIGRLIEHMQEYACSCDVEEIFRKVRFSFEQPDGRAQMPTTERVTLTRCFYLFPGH
On the set-up: species or system Escherichia coli.

A short description of data set [5]: DRUGMATRIX: Interleukin IL-1 radioligand binding (ligand: [125I] interleukin 1beta). It is filed as cell membranes, Membrane. Particulars: nih3t3; Not Active = under 50% inhibition at 10 µM.
The target in data set [6] is T3, Alpha-2A adrenergic receptor (Homo sapiens, UniProt P08913). Also: in other assays of this panel Not Active means under 50% inhibition at 10 µM.
T3 sequence (P08913 whole entry): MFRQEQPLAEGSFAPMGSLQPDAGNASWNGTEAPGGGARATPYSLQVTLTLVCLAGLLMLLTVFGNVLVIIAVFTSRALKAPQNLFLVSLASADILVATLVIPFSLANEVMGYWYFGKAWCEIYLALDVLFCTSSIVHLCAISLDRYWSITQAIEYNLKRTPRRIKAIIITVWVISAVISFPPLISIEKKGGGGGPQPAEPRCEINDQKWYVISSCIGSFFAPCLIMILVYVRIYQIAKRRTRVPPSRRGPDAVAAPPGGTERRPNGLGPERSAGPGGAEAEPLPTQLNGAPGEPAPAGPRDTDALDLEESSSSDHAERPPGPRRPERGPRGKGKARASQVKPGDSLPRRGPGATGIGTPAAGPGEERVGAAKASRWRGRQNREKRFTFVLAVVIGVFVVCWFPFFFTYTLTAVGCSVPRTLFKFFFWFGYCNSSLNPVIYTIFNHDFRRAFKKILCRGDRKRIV
It is filed as cell membranes, Sf9, Membrane.

Sequence of C-C chemokine receptor type 5 (P51681 whole entry): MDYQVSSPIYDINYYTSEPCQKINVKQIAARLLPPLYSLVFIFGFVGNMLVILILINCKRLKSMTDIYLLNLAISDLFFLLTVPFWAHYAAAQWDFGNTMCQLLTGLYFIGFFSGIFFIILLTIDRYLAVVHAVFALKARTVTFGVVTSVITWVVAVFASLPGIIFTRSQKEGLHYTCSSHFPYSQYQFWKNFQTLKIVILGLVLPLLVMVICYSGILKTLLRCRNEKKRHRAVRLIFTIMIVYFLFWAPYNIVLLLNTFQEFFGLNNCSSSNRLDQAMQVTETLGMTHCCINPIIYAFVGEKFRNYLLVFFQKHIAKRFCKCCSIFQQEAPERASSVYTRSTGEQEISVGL
Sequence of Matrix metalloproteinase-9 (P14780 whole entry): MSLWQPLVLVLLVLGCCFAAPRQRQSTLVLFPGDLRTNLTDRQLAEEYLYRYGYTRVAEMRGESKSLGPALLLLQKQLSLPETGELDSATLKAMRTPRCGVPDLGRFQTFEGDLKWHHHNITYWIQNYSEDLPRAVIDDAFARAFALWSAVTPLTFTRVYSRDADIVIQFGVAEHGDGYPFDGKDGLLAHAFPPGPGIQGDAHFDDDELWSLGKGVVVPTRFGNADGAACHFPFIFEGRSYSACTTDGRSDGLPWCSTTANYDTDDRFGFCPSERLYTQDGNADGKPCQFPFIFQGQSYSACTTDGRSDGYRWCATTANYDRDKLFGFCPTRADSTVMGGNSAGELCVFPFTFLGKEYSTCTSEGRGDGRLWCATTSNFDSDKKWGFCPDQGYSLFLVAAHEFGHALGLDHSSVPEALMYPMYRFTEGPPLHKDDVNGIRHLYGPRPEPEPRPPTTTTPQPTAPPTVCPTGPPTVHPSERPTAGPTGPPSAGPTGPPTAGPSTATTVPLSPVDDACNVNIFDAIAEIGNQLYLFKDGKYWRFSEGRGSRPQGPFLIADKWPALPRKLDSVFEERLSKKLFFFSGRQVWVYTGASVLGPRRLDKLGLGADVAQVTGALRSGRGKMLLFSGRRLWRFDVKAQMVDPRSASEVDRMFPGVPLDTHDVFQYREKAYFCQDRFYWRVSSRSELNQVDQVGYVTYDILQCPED
Sequence of Mitogen-activated protein kinase 1 (P28482 whole entry): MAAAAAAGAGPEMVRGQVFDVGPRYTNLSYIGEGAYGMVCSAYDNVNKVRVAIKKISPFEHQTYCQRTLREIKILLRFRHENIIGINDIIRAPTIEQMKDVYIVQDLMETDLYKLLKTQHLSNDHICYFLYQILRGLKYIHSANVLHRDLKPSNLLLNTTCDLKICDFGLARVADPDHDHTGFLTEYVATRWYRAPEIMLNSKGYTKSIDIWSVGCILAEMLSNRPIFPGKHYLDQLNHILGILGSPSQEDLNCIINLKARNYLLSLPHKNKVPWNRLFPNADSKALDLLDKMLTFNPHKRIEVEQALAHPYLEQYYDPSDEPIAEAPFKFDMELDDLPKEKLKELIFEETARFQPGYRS

Regarding `NC(=O)CN1CCCC1=O`, the IC50 entry (on Cytochrome P450 2A6; in data set [1]; in data set [2]; in data set [3]; in data set [4]; on Caspase-1) was “Not Active” throughout. The IC50 entry in data set [5] and in data set [6] (sf9) was “Not Active” throughout. Further, the inhibitory constant (Ki) entry (at Cytochrome P450 2A6; in data set [2]; in data set [5]) was “Not Active” throughout.

Turning to `CC(N)Cc1c[nH]c2ccc(OCc3cccs3)cc12` (stereo unspecified) [BW-723C86], the IC50 entry (against Cytochrome P450 2A6; in data set [1]; in data set [2]; in data set [3]; in data set [4]; at Caspase-1) was “Not Active” throughout. In addition, the IC50 result in data set [5] and in data set [6] (sf9) was “Not Active” in each case. For the same compound, the Ki entry (at Cytochrome P450 2A6; in data set [2]; in data set [5]) was “Not Active” each time.

`c1ccc2c(c1)Nc1ccccc1S2` [PHENOTHIAZINE]: the IC50 result (against Cytochrome P450 2A6; in data set [1]; in data set [2]; in data set [3]; in data set [4]; on Caspase-1) was “Not Active” throughout. Moreover, the IC50 result in data set [5] and in data set [6] (sf9) was “Not Active” throughout. Besides, the Ki result (on Cytochrome P450 2A6; in data set [2]; in data set [5]) was “Not Active” throughout.

Regarding `ClC1=C(Cl)[C@]2(Cl)[C@@H]3[C@@H]4C[C@@H]([C@H]5O[C@@H]45)[C@@H]3[C@@]1(Cl)C2(Cl)Cl` [DIELDRIN], the IC50 entry (on Cytochrome P450 2A6; in data set [1]; in data set [2]; in data set [3]; in data set [4]; against Caspase-1) was “Not Active” throughout. The IC50 entry in data set [5] and in data set [6] (sf9) was “Not Active” in each case. Further, the inhibition constant (Ki) entry (at Cytochrome P450 2A6; in data set [2]; in data set [5]) was “Not Active” throughout.

`CC(C)(c1ccc(O)cc1)c1ccc(O)cc1` [BISPHENOL A]: the IC50 result (on Cytochrome P450 2A6; in data set [1]; in data set [2]; in data set [3]; in data set [4]; against Caspase-1) was “Not Active” in each case. Besides, the IC50 entry in data set [5] and in data set [6] (sf9) was “Not Active” in each case. In addition, the inhibition constant (Ki) entry (at Cytochrome P450 2A6; in data set [2]; in data set [5]) was “Not Active” each time.

`c1ccc(Cn2ccnc2)cc1`: the IC50 result (against Cytochrome P450 2A6; in data set [1]; in data set [2]; in data set [3]; in data set [4]; at Caspase-1) was “Not Active” each time. In addition, the IC50 result in data set [5] and in data set [6] (sf9) was “Not Active” throughout. Further, the Ki result (on Cytochrome P450 2A6; in data set [2]; in data set [5]) was “Not Active” each time.

Consider `CCO` [ALCOHOL], for which the IC50 entry (at Cytochrome P450 2A6; in data set [1]; in data set [2]; in data set [3]; in data set [4]; against Caspase-1) was “Not Active” in each case. Besides, the 50% inhibitory concentration (IC50) result in data set [5] and in data set [6] (sf9) was “Not Active” in each case. Besides, the Ki entry (on Cytochrome P450 2A6; in data set [2]; in data set [5]) was “Not Active” throughout.

Consider `CCN1CCN(C(=O)N[C@@H](C(=O)N[C@@H]2C(=O)N3[C@@H]2SC(C)(C)[C@@H]3C(=O)O)c2ccccc2)C(=O)C1=O` [PIPERACILLIN], for which the IC50 result (against Cytochrome P450 2A6; in data set [1]; in data set [2]; in data set [3]; in data set [4]; at Caspase-1) was “Not Active” each time. Moreover, the IC50 result in data set [5] and in data set [6] (sf9) was “Not Active” throughout. Besides, the Ki result (at Cytochrome P450 2A6; in data set [2]; in data set [5]) was “Not Active” each time.

Regarding `NC(=O)NC(=O)Cc1ccccc1` [PHENACEMIDE], the IC50 entry (on Cytochrome P450 2A6; in data set [1]; in data set [2]; in data set [3]; in data set [4]; against Caspase-1) was “Not Active” throughout. The 50% inhibitory concentration (IC50) entry in data set [5] and in data set [6] (sf9) was “Not Active” each time. Besides, the Ki result (at Cytochrome P450 2A6; in data set [2]; in data set [5]) was “Not Active” each time.

With `Nc1ccc(Cc2ccc(N)cc2)cc1`, the half-maximal inhibitory concentration (IC50) entry (on Cytochrome P450 2A6; in data set [1]; in data set [2]; in data set [3]; in data set [4]; at Caspase-1) was “Not Active” throughout. In addition, the IC50 result in data set [5] and in data set [6] (sf9) was “Not Active” each time. Besides, the Ki result (at Cytochrome P450 2A6; in data set [2]; in data set [5]) was “Not Active” in each case.

For `CC[C@H]1OC(=O)[C@H](C)[C@@H](O[C@H]2C[C@@](C)(OC)[C@@H](O)[C@H](C)O2)[C@H](C)[C@@H](O[C@@H]2O[C@H](C)C[C@H](N(C)C)[C@H]2O)[C@](C)(O)C[C@@H](C)C(=O)[C@H](C)[C@@H](O)[C@]1(C)O` [ERYTHROMYCIN], the IC50 result (against Cytochrome P450 2A6; in data set [1]; in data set [2]; in data set [3]; in data set [4]; at Caspase-1) was “Not Active” each time. Moreover, the IC50 result in data set [5] and in data set [6] (sf9) was “Not Active” throughout. In addition, the Ki result (on Cytochrome P450 2A6; in data set [2]; in data set [5]) was “Not Active” in each case.

Consider `C[N+](C)(C)CCOP(=O)([O-])OC[C@H](O)CO`, for which the IC50 result (on Cytochrome P450 2A6; in data set [1]; in data set [2]; in data set [3]; in data set [4]; at Caspase-1) was “Not Active” throughout. Moreover, the IC50 entry in data set [5] and in data set [6] (sf9) was “Not Active” each time. For the same compound, the Ki entry (on Cytochrome P450 2A6; in data set [2]; in data set [5]) was “Not Active” in each case.

With `Clc1cc(Cl)c(OCC#CI)cc1Cl` [HALOPROGIN], the IC50 entry (against Cytochrome P450 2A6; in data set [1]; in data set [2]; in data set [3]; in data set [4]; against Caspase-1) was “Not Active” throughout. Besides, the IC50 (usually the point on the concentration scale where inhibition reaches its midpoint) is “Not Active” in data set [5] and 1.22 µM in data set [6] (read-out: IC50). Moreover, the inhibition constant Ki (commonly the equilibrium dissociation constant of an inhibitor or competing ligand from its target) was “Not Active” at Cytochrome P450 2A6, “Not Active” in data set [2], “Not Active” in data set [5] and 0.458 µM in data set [6] (read-out: Ki).

With `C[N+](C)(C)CCOC(N)=O.[Cl-]` [CARBACHOL], the half-inhibitory concentration (IC50) entry (against Cytochrome P450 2A6; in data set [1]; in data set [2]; in data set [3]; in data set [4]; at Caspase-1) was “Not Active” each time. Also, the IC50 result in data set [5] and in data set [6] (sf9) was “Not Active” each time. Moreover, the Ki entry (at Cytochrome P450 2A6; in data set [2]; in data set [5]) was “Not Active” throughout.

For `CCN(CCO)CCCC(C)Nc1ccnc2cc(Cl)ccc12` (stereo unspecified) [HYDROXYCHLOROQUINE], the IC50 entry (against Cytochrome P450 2A6; in data set [1]; in data set [2]; in data set [3]; in data set [4]; against Caspase-1) was “Not Active” throughout. In addition, the IC50 entry in data set [5] and in data set [6] (sf9) was “Not Active” throughout. Also, the Ki result (on Cytochrome P450 2A6; in data set [2]; in data set [5]) was “Not Active” in each case.
